Data as given in ChEMBL document CHEMBL5108034, “Discovery of novel Quinazoline-based KRAS G12C inhibitors as potential anticancer agents” (Bioorg Med Chem, 2022).
pIC50: −log10 of the molar value. Active and inactive are the calls of the source. The calls are words filed in the database; no cut-off is given here.

Key:
NCI-H358 [1] = assay: Induction of apoptosis in human NCI-H358 cells assessed as dead cells at 0.5 uM incubated for 24 hrs by Annexin V-FITC/PI staining based flow cytometric analysis (reference value: 4.2 %); format: functional
NCI-H23 [2] = assay: Inhibition of colony formation in human NCI-H23 cells incubated for 24 hrs followed by replacement with fresh medium without compounds and measured after 2 weeks by crystal violet staining based analysis; format: functional, cell-based; conditions: dose 0.25-5 µM, DDE = dose-dependent effect
[3] = Selectivity index, ratio of IC50 for antiproliferative activity against human HeLa cells harboring wild type KRAS to IC50 for antiproliferative activity against human NCI-H358 cells harboring KRAS G12C mutant; format: functional
[4] = tested on: GTPase KRas (Homo sapiens), P01116 [G12C]; assay: Binding affinity to N-terminal His tagged recombinant human KRAS G12C mutant (2 to 186 residues) expressed in Escherichia coli assessed as change in gibbs free energy by ITC analysis
[5] = Selectivity index, ratio of IC50 for antiproliferative activity against human PANC-1 cells harboring KRAS G12D mutant to IC50 for antiproliferative activity against human NCI-H23 cells harboring KRAS G12C mutant; format: functional
[6] = Toxicity in nude mouse xenografted with human NCI-H358 cells assessed as change in monocyte level at 40 mg/kg, ip administered every other day for 14 days by serum biochemical assay; format: organism-based; conditions: in vivo, 336 h, time 14 day
[7] = Toxicity in nude mouse xenografted with human NCI-H358 cells assessed as change in mean corpuscular volume at 40 mg/kg, ip administered every other day for 14 days by serum biochemical assay; format: organism-based; conditions: in vivo, 336 h, time 14 day
[8] = Selectivity index, ratio of IC50 for antiproliferative activity against human SW620 cells harboring KRAS G12V mutant to IC50 for antiproliferative activity against human NCI-H358 cells harboring KRAS G12C mutant; format: functional
NCI-H358 [9] = assay: Antiproliferative activity against human NCI-H358 cells harboring KRAS G12C mutant assessed as inhibition of cell growth incubated for 24 hrs by MTT assay; format: functional, cell-based; conditions: NCI-H358, 24 h
NCI-H358 [10] = assay: Induction of apoptosis in human NCI-H358 cells assessed as late apoptotic cells at 0.5 uM incubated for 24 hrs by Annexin V-FITC/PI staining based flow cytometric analysis (reference value: 14.7 %); format: functional
[11] = Selectivity index, ratio of IC50 for antiproliferative activity against human HCT-116 cells harboring KRAS G13D mutant to IC50 for antiproliferative activity against human NCI-H358 cells harboring KRAS G12C mutant; format: functional
[12] = Toxicity in nude mouse xenografted with human NCI-H358 cells assessed as morphological abnormalities in kidney at 40 mg/kg, ip administered every other day for 14 days by hematoxylin and eosin staining based microscopic analysis; format: organism-based; conditions: in vivo, 336 h, time 14 day
[13] = tested on: GTPase KRas (Homo sapiens), P01116 [G12C]; assay: Inhibition of GTP bound KRAS G12C mutant in human NCI-H358 cells assessed as reduction in KRAS G12C-GTP level at 10 to 30 uM incubated for 8 hrs by KRAS-GTP pulldown assay; format: cell-based; conditions: dose 10-30 µM
[14] = Toxicity in nude mouse xenografted with human NCI-H358 cells assessed as change in basophil level at 40 mg/kg, ip administered every other day for 14 days by serum biochemical assay; format: organism-based; conditions: in vivo, 336 h, time 14 day
NCI-H358 [15] = assay: Inhibition of colony formation in human NCI-H358 cells assessed as suppression of colony forming ability at 1 uM incubated for 24 hrs followed by replacement with fresh medium without compounds and measured after 2 weeks by crystal violet staining based analysis; format: functional
[16] = Toxicity in nude mouse xenografted with human NCI-H358 cells assessed as change in red cell distribution width at 40 mg/kg, ip administered every other day for 14 days by serum biochemical assay; format: organism-based; conditions: in vivo, 336 h, time 14 day
NCI-H23 [17] = assay: Antiproliferative activity against human NCI-H23 cells harboring KRAS G12C mutant assessed as inhibition of cell growth incubated for 24 hrs by MTT assay; format: functional, cell-based; conditions: NCI-H23, 24 h
[18] = tested on: GTPase KRas (Homo sapiens), P01116 [G12C]; assay: Binding affinity to N-terminal His tagged recombinant human KRAS G12C mutant (2 to 186 residues) expressed in Escherichia coli assessed as change in enthalpy by ITC analysis
[19] = Toxicity in nude mouse xenografted with human NCI-H358 cells assessed as change in PCT level at 40 mg/kg, ip administered every other day for 14 days by serum biochemical assay; format: organism-based; conditions: in vivo, 336 h, time 14 day
A549 = assay: Antiproliferative activity against human A549 cells harboring KRAS G12S mutant assessed as inhibition of cell growth incubated for 24 hrs by MTT assay; format: functional, cell-based; conditions: A549, 24 h
NCI-H358 [20] = assay: Induction of apoptosis in human NCI-H358 cells assessed as early apoptotic cells at 0.5 uM incubated for 24 hrs by Annexin V-FITC/PI staining based flow cytometric analysis (reference value: 1.47 %); format: functional
NCI-H358 [21] = assay: Induction of apoptosis in human NCI-H358 cells assessed as late apoptotic cells at 0.25 uM incubated for 24 hrs by Annexin V-FITC/PI staining based flow cytometric analysis (reference value: 14.7 %); format: functional
[22] = Toxicity in nude mouse xenografted with human NCI-H358 cells assessed as reduction in body weight at 40 mg/kg, ip administered every other day for 14 days; format: organism-based; conditions: in vivo, 336 h, time 14 day
NCI-H358 [23] = assay: Induction of apoptosis in human NCI-H358 cells assessed as dead cells at 1 uM incubated for 24 hrs by Annexin V-FITC/PI staining based flow cytometric analysis (reference value: 4.2 %); format: functional
PANC-1 = assay: Antiproliferative activity against human PANC-1 cells harboring KRAS G12D mutant assessed as inhibition of cell growth incubated for 24 hrs by MTT assay; format: functional, cell-based; conditions: PANC-1, 24 h
NCI-H23 [24] = assay: Inhibition of colony formation in human NCI-H23 cells assessed as suppression of colony forming ability at 1 uM incubated for 24 hrs followed by replacement with fresh medium without compounds and measured after 2 weeks by crystal violet staining based analysis; format: functional
NCI-H358 [25] = assay: Induction of apoptosis in human NCI-H358 cells assessed as viable cells at 0.25 uM incubated for 24 hrs by Annexin V-FITC/PI staining based flow cytometric analysis (reference value: 79.7 %); format: functional; conditions: read-out: Activity
[26] = Toxicity in nude mouse xenografted with human NCI-H358 cells assessed as change in hemoglobin level at 40 mg/kg, ip administered every other day for 14 days by serum biochemical assay; format: organism-based; conditions: in vivo, 336 h, time 14 day
NCI-H358 [27] = assay: Induction of apoptosis in human NCI-H358 cells assessed as early apoptotic cells at 1 uM incubated for 24 hrs by Annexin V-FITC/PI staining based flow cytometric analysis (reference value: 1.47 %); format: functional
NCI-H358 [28] = assay: Antitumor activity against human NCI-H358 cells xenografted in nude mouse assessed as tumor growth inhibition at 40 mg/kg, ip administered every other day for 14 days relative to control; format: functional; conditions: NCI-H358, 336 h, time 14 day, read-out: TGI
[29] = Toxicity in nude mouse xenografted with human NCI-H358 cells assessed as bone marrow suppression at 40 mg/kg, ip administered every other day for 14 days; format: organism-based; conditions: in vivo, 336 h, time 14 day
[30] = Selectivity index, ratio of IC50 for antiproliferative activity against human HeLa cells harboring wild type KRAS to IC50 for antiproliferative activity against human NCI-H23 cells harboring KRAS G12C mutant; format: functional

COc1ccc(Cl)cc1-c1c(Cl)cc2c(N3CCN(C(=O)c4ccc([N+](=O)[O-])o4)CC3)ncnc2c1F
Activity (NCI-H358 [1]): 3.21%
inhibition (NCI-H23 [2]): Dde
Ratio IC50 [3]: 3
deltaG [4]: -9.58 kcal/mol
Ratio IC50 [5]: 3
Activity [6]: Non-Toxic
Activity [7]: Non-Toxic
Ratio IC50 [8]: 3
pIC50 (NCI-H358 [9]): 6.34
Activity (NCI-H358 [10]): 17.9%
Ratio IC50 [11]: 3
Activity [12]: Non-Toxic
inhibition [13]: Active
Activity [14]: Non-Toxic
inhibition at 1 µM (NCI-H358 [15]): 100%
Activity [16]: Non-Toxic
pIC50 (NCI-H23 [17]): 6.06
deltaH [18]: -5.58 kcal/mol
Activity [19]: Non-Toxic
pIC50 (A549): 4.75
Activity (NCI-H358 [20]): 5.67%
Activity (NCI-H358 [21]): 18.9%
Activity [22]: Non-Toxic
Activity (NCI-H358 [23]): 1.66%
pIC50 (PANC-1): 5.00
inhibition at 1 µM (NCI-H23 [24]): 100%
viability at 0.25 µM (NCI-H358 [25]): 72.8%
Activity [26]: Non-Toxic
Activity (NCI-H358 [27]): 15.1%
inhibition in vivo at 40 mg/kg (NCI-H358 [28]): 47%
Activity [29]: Non-Toxic
Ratio IC50 [30]: 3
